Several values for one entry are separate records, joined by “and”; a condition that tells them apart may be missing. Equal values may be shown once. Read-outs that look alike come from different tables or passages of the source.
How the values were obtained:
[1] = tested on: Acinetobacter baumannii; assay: MIC (microbroth dilution); type: cell-based; conditions: read-out: MIC
How it was run: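 Microbroth dilution in tryptic soy broth; Streptococcus spp. in cation-adjusted Mueller Hinton broth with 2.5% lysed horse blood, inocula from overnight stationary-phase cultures. MIC is lowest concentration without visible growth, OD600 read. Parallel MICs run with 30 μg/mL polymyxin B nonapeptide (final) as outer-membrane permeabilizer.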

[2] = tested on: K. pneumoniae; assay: MIC (microbroth dilution); type: cell-based, Klebsiella pneumoniae; conditions: Klebsiella pneumoniae, read-out: MIC
How it was run: (§1)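 Broth microdilution MICs, defined as lowest compound level without visible growth (OD600 read), on bacteria grown overnight to stationary phase then diluted. Twofold compound dilutions; some wells also received PMBN, final 30 μg/mL, to permeabilize the outer membrane.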

[3] = tested on: E. coli; assay: MIC (microbroth dilution); type: cell-based; conditions: Escherichia coli
How it was run: as §1

[4] = target: T1, GyrA S84L mutant DNA gyrase (Staphylococcus aureus, UniProt P0A0K8+P20831, S84L); assay: DNA gyrase supercoiling inhibition assay; type: biochemical, S. aureus
T1 construct: purchased Inspiralis Ltd. (Norwich, UK)
Method: (§2) Gyrase inhibition was determined through biochemical assay kits from Inspiralis Ltd. (Norwich, UK), according to manufacturer’s instructions, and as described previously. Briefly, 1U of enzyme was incubated with 0.5 μg of relaxed […] DNA in the presence of compound in 1% DMSO for 30 min at 37 °C. A control reaction contained no compound but still contained 1% DMSO. The reactions were stopped through Stop Buffer addition and the DNA separated through addition of chloroform/iso-amyl alcohol (24;1). Samples were run on a 1% agarose gel at 75 V for 2 h, which was then stained with 1 μg/mL ethidium bromide and visualized using a NuGenius gel imager (Syngene). The intensity of the supercoiled DNA band was quantified using Syngene software, and the inhibition of the supercoiling of the DNA by the compounds was calculated.

[5] = target: T2, WT DNA gyrase (Staphylococcus aureus, UniProt P0A0K8+P20831); assay: DNA gyrase supercoiling inhibition assay; type: biochemical, S. aureus
T2 construct: purchased Inspiralis Ltd. (Norwich, UK)
Method: as §2

[6] = tested on: WI38; assay: Toxicity in nontumor eukaryotic cell line; type: cell-based; conditions: 100 μM, the highest concentration tested
[7] = target: CYP2C19 (Homo sapiens, UniProt P33261); assay: CYP inhibition; conditions: HLM, omeprazole substrate
Method: Cytochrome P450 inhibition was assessed in vitro using human recombinant enzymes in microsomal preparations. […] Enzyme activity was quantified by monitoring formation of substrate-specific metabolites, and percent inhibition was calculated relative to vehicle control.

[8] = Maximum tolerated dose study; conditions: for B.W.: animals N 1-3;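 for all read-outs here: male ICR mice given oral doses under a stepwise escalation scheme to find the highest tolerated dose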

CYP2C19, sequence (P33261 whole entry): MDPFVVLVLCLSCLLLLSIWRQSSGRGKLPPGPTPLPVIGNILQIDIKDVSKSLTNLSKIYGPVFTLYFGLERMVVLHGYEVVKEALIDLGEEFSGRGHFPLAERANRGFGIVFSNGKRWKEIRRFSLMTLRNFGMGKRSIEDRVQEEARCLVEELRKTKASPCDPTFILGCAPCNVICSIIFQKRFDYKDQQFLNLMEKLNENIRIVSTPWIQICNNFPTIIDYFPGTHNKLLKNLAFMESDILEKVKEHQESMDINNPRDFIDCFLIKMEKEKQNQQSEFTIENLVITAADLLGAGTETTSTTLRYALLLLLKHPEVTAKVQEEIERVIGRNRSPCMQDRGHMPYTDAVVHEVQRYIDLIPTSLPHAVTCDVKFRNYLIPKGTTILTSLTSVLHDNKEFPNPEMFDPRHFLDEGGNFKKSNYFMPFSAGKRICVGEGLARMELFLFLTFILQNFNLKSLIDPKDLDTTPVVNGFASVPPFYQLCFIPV

Cc1cc(C)nc(N[C@@H]2CCN(c3c(F)cc4c(=O)c(C(=O)O)cn5c4c3OC[C@@H]5C)C2)n1 [Compound 50, (S)-10-((R)-3-((4,6-Dimethylpyrimidin-2-yl)amino)pyrrolidin-1-yl)-9-fluoro-3-methyl-7-oxo-2,3-dihydro-7H-[1,4]oxazino[2,3,4-ij]quinoline-6-carboxylic acid]
0.125 µg/mL: MIC ([1]; Acinetobacter baumannii, A601 colS) | MIC ([1]; Acinetobacter baumannii, BAA1709, BAA-1709) | MIC ([1]; Acinetobacter baumannii, NCTC10303, NCTC 10303) | MIC ([1]; Acinetobacter baumannii, UKA9) | MIC ([3]; NCTC10418, NCTC 10418)
1 µg/mL: MIC ([3]; NCTC12923, NCTC 12923)
0.5 µg/mL: MIC ([1]; Acinetobacter baumannii, UKA19) | MIC ([3]; LEC006)
4 µg/mL: MIC ([1]; Acinetobacter baumannii, 96, oxa23) | MIC ([1]; Acinetobacter baumannii, 113, oxa23) | MIC ([1]; Acinetobacter baumannii, A319) | MIC ([1]; Acinetobacter baumannii, A600 colR) | MIC ([1]; Acinetobacter baumannii, NCTC13302, NCTC 13302, oxa24) | MIC ([1]; Acinetobacter baumannii, UKA1, oxa23) | MIC ([1]; Acinetobacter baumannii, UKA12, oxa23) | MIC ([1]; Acinetobacter baumannii, UKA13, oxa23) | MIC ([1]; Acinetobacter baumannii, UKA15, oxa23)
25 and 23: B.W. ([8]; PO 400 mg/kg, 72 hrs after final dose, 400 mg/kg)
0.25 µg/mL: MIC ([1]; Acinetobacter baumannii, ATCC17978, ATCC 17978) | MIC ([3]; LEC007) | MIC ([3]; NCTC11954, NCTC 11954) | MIC ([3]; NCTC12241, NCTC 12241)
20 and 21: B.W. ([8]; PO 400 mg/kg, Pre-dose, 400 mg/kg)
> 64 µg/mL: MIC ([1]; Acinetobacter baumannii, NCTC13424, NCTC 13424, oxa23)
25 and 28: B.W. ([8]; PO 200 mg/kg, 72 hrs after final dose, 200 mg/kg)
nontoxic: toxicity in WI38 [6]
≤ 0.06 µg/mL: MIC ([1]; Acinetobacter baumannii, A118)
32 µg/mL: MIC ([3]; 319238/UR)
2 µg/mL: MIC ([2]; M6)
8 µg/mL: MIC ([1]; Acinetobacter baumannii, 86, oxa23) | MIC ([1]; Acinetobacter baumannii, BAA1710, BAA-1710 (AYE)) | MIC ([1]; Acinetobacter baumannii, T strain) | MIC ([1]; Acinetobacter baumannii, UKA2, Low resistance) | MIC ([1]; Acinetobacter baumannii, W1) | MIC ([3]; LEC077) | MIC ([3]; LEC081)
9.87%: inhibition at 10 µM ([7]; human, human liver microsomes, probe omeprazole, CYP2C19 inhibition)
0/3: Response (death/test) ([8]; PO 100 mg/kg, 1 hr after 1st dosing) | Response (death/test) ([8]; PO 100 mg/kg, 1 hr after 2nd dosing) | Response (death/test) ([8]; PO 100 mg/kg, 1 hr after 3rd dosing) | Response (death/test) ([8]; PO 100 mg/kg, 2 hrs after 3rd dosing) | Response (death/test) ([8]; PO 100 mg/kg, 6 hrs after 1st dosing) | Response (death/test) ([8]; PO 100 mg/kg, 6 hrs after 2nd dosing) | Response (death/test) ([8]; PO 100 mg/kg, 24 hrs after 3rd dosing) | Response (death/test) ([8]; PO 100 mg/kg, 48 hrs after 3rd dosing) | Response (death/test) ([8]; PO 100 mg/kg, 72 hrs after 3rd dosing) | Response (death/test) ([8]; PO 200 mg/kg, 1 hr after 1st dosing) | Response (death/test) ([8]; PO 200 mg/kg, 1 hr after 2nd dosing) | Response (death/test) ([8]; PO 200 mg/kg, 1 hr after 3rd dosing) | Response (death/test) ([8]; PO 200 mg/kg, 2 hrs after 3rd dosing) | Response (death/test) ([8]; PO 200 mg/kg, 6 hrs after 1st dosing) | Response (death/test) ([8]; PO 200 mg/kg, 6 hrs after 2nd dosing) | Response (death/test) ([8]; PO 200 mg/kg, 24 hrs after 3rd dosing) | Response (death/test) ([8]; PO 200 mg/kg, 48 hrs after 3rd dosing) | Response (death/test) ([8]; PO 200 mg/kg, 72 hrs after 3rd dosing) | Response (death/test) ([8]; PO 400 mg/kg, 1 hr after 1st dosing) | Response (death/test) ([8]; PO 400 mg/kg, 1 hr after 2nd dosing) | Response (death/test) ([8]; PO 400 mg/kg, 1 hr after 3rd dosing) | Response (death/test) ([8]; PO 400 mg/kg, 2 hrs after 3rd dosing) | Response (death/test) ([8]; PO 400 mg/kg, 6 hrs after 1st dosing) | Response (death/test) ([8]; PO 400 mg/kg, 6 hrs after 2nd dosing) | Response (death/test) ([8]; PO 400 mg/kg, 24 hrs after 3rd dosing) | Response (death/test) ([8]; PO 400 mg/kg, 48 hrs after 3rd dosing) | Response (death/test) ([8]; PO 400 mg/kg, 72 hrs after 3rd dosing)
5.56 µM: IC50 [5]
16 µg/mL: MIC ([1]; Acinetobacter baumannii, A318) | MIC ([2]; NCTC13368, NCTC 13368)
< 10%: CYP2C19 inhibition ([7]; 10 μM)
24 and 23: B.W. ([8]; PO 100 mg/kg, Pre-dose, 100 mg/kg)
23 and 24: B.W. ([8]; PO 200 mg/kg, Pre-dose, 200 mg/kg)
24 and 25: B.W. ([8]; PO 100 mg/kg, 72 hrs after final dose, 100 mg/kg)
8.38 µM: IC50 [4]

— article PMC13266999, “Designing Antibiotics with Inherent Resistance to Efflux as a Strategy to Revive Discovery against Multidrug-Resistant Pathogens” (Journal of Medicinal Chemistry, 2026)
